Measured values: ChEMBL document CHEMBL4196200 (J Med Chem, 2018)
pKi: −log10 of the molar value. One block for each compound: values may come before it.

Experiments:
Vasopressin V1a receptor [1] = target: T1, Vasopressin V1a receptor (Homo sapiens, UniProt P37288); assay: Displacement of [3H]-AVP from human V1A receptor expressed in CHO cell membranes by radioligand binding assay
Target sequence in this assay (P37288 whole entry): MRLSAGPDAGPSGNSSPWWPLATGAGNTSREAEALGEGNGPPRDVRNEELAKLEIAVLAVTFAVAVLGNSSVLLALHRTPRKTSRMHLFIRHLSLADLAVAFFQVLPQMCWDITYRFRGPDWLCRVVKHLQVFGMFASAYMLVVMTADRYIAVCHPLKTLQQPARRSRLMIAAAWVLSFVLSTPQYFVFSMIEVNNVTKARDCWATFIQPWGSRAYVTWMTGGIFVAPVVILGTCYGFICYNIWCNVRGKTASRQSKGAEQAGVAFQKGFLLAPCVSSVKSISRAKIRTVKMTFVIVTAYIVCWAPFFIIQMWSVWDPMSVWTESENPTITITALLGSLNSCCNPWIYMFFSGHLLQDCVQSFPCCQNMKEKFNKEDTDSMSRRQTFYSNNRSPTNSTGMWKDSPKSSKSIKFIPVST

Vasopressin V2 receptor [2] = target: T2, Vasopressin V2 receptor (Homo sapiens, UniProt P30518); assay: Displacement of [3H]-AVP from human V2 receptor expressed in CHO cell membranes by radioligand binding assay
Oxytocin receptor = target: T3, Oxytocin receptor (Homo sapiens, UniProt P30559); assay: Displacement of [3H]-AVP from human OXR receptor expressed in CHO cell membranes by radioligand binding assay
T3 sequence (P30559 whole entry): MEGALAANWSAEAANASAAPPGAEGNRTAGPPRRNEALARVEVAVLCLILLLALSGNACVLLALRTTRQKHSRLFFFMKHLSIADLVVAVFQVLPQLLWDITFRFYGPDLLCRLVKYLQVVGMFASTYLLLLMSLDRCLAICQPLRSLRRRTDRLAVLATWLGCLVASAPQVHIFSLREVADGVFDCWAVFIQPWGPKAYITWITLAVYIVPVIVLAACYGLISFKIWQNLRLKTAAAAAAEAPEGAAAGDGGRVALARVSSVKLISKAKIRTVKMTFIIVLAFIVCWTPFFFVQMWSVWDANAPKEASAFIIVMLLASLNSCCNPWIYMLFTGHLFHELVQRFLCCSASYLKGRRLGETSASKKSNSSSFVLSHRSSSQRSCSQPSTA

Vasopressin V1a receptor [3] = target: T1, Vasopressin V1a receptor; assay: Antagonist activity at human V1A receptor expressed in CHO cells assessed as inhibition of AVP-induced myo-inositol 1-phosphate accumulation at 1 uM by IP-One assay relative to AVP; format: functional, cell-based
Target sequence in this assay (P37288 whole entry, looked up): as the sequence (P37288 whole entry) above

[4] = target: T4, Oxytocin receptor (Homo sapiens) (UniProt P30559); assay: Antagonist activity at human OTR receptor expressed in CHO cells assessed as inhibition of OT-induced myo-inositol 1-phosphate accumulation at 1 uM by IP-One assay relative to OT; format: functional, cell-based
T4 sequence (whole entry): T3 sequence (P30559 whole entry)

Vasopressin V1a receptor [5] = target: T1, Vasopressin V1a receptor; assay: Agonist activity at human V1A receptor expressed in CHO cells assessed as increase in myo-inositol 1-phosphate accumulation at 1 uM by IP-One assay relative to AVP; format: functional, cell-based
Target sequence in this assay (P37288 whole entry, looked up): as the sequence (P37288 whole entry) above

Vasopressin V1a receptor [6] = target: T1, Vasopressin V1a receptor; assay: Antagonist activity at human V1A receptor expressed in CHO cells assessed as inhibition of AVP-induced myo-inositol 1-phosphate accumulation by IP-One assay; format: functional, cell-based
Target sequence in this assay (P37288 whole entry, looked up): as the sequence (P37288 whole entry) above

[7] = target: T4, Oxytocin receptor (Homo sapiens); assay: Agonist activity at human OTR receptor expressed in CHO cells assessed as increase in myo-inositol 1-phosphate accumulation at 1 uM by IP-One assay relative to OT; format: functional, cell-based
Homo sapiens [8] = species: Homo sapiens; assay: Selectivity for human V1a receptor over human V2 receptor
Homo sapiens [9] = species: Homo sapiens; assay: Selectivity for human OTR receptor over human V2 receptor
Vasopressin V2 receptor [10] = target: T2, Vasopressin V2 receptor; assay: Agonist activity at human V2 receptor expressed in CHO cells assessed as increase in cAMP accumulation by cAMP dynamic 2 assay; format: functional, cell-based
[11] = target: T4, Oxytocin receptor (Homo sapiens); assay: Antagonist activity at human OTR receptor expressed in CHO cells assessed as inhibition of OT-induced myo-inositol 1-phosphate accumulation by IP-One assay; format: functional, cell-based

T2 sequence (P30518 whole entry): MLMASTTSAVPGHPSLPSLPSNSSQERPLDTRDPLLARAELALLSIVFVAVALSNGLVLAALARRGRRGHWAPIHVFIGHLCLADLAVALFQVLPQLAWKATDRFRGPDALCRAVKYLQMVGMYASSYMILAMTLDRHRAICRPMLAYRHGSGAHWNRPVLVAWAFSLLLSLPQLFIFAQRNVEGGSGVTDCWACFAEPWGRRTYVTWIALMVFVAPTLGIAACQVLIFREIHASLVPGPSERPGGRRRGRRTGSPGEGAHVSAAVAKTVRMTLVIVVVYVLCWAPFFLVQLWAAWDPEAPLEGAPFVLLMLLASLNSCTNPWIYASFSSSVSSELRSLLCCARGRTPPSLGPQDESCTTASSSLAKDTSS

SMILES: Cc1ccn(-c2ccc(C(=O)N3CCCC(=O)c4ccccc43)c(Cl)c2)n1
- pKi (Vasopressin V1a receptor [1]): > 8.00
- pKi (Vasopressin V2 receptor [2]): > 8.00
- pKi (Oxytocin receptor): > 8.00
- inhibition (Vasopressin V1a receptor [3]): < 10%
- inhibition [4]: 14%
- Emax (Vasopressin V1a receptor [5]): < 10%

SMILES: O=C(c1ccc(-c2ncccn2)cc1)N1CCCCc2ccccc21
- pKi (Vasopressin V1a receptor [1]): 6.24
- pKi (Vasopressin V2 receptor [2]): 6.48
- pKi (Oxytocin receptor): 6.47
- Kinact (Vasopressin V1a receptor [6]): 177 nM
- inhibition [4]: 30.6%
- Emax [7]: < 10%
- Emax (Vasopressin V1a receptor [5]): < 10%

SMILES: Cc1ccn(-c2ccc(C(=O)N3CCCC(N(C)C)c4ccccc43)cc2)n1 (stereo not drawn)
- pKi (Vasopressin V1a receptor [1]): 6.13
- pKi (Vasopressin V2 receptor [2]): < 6.00
- pKi (Oxytocin receptor): 5.88
- inhibition (Vasopressin V1a receptor [3]): 15%
- inhibition [4]: 21%
- Emax (Vasopressin V1a receptor [5]): < 10%
- Selectivity ratio (Homo sapiens [8]): < 0.74

SMILES: Cc1ccn(-c2ccc(C(=O)N3CCCC(O)c4ccccc43)c(Cl)c2)n1 (stereo not drawn)
- pKi (Vasopressin V1a receptor [1]): > 8.00
- pKi (Vasopressin V2 receptor [2]): 7.00
- pKi (Oxytocin receptor): 6.10
- Kact (Vasopressin V2 receptor [10]): 28 nM
- inhibition (Vasopressin V1a receptor [3]): 26%
- inhibition [4]: 28%
- Emax (Vasopressin V1a receptor [5]): < 10%
- Selectivity ratio (Homo sapiens [8]): > 100
- Selectivity ratio (Homo sapiens [9]): 8

SMILES: O=C(c1ccc(Cl)cc1)N1CCCCc2ccccc21
- pKi (Vasopressin V1a receptor [1]): 6.25
- pKi (Vasopressin V2 receptor [2]): 6.29
- pKi (Oxytocin receptor): > 8.00
- Kinact (Vasopressin V1a receptor [6]): 149 nM
- inhibition [4]: 24.1%
- Emax [7]: < 10%
- Emax (Vasopressin V1a receptor [5]): < 10%

SMILES: O=C(c1ccc(Br)cc1)N1CCCCc2ccccc21
- pKi (Vasopressin V1a receptor [1]): 6.30
- pKi (Vasopressin V2 receptor [2]): 6.15
- pKi (Oxytocin receptor): > 8.00
- Kinact (Vasopressin V1a receptor [6]): 218 nM
- inhibition [4]: 20%
- Emax [7]: < 10%
- Emax (Vasopressin V1a receptor [5]): < 10%

SMILES: CN(C)c1ccc(C(=O)N2CCCCc3ccccc32)cc1
- pKi (Vasopressin V1a receptor [1]): 7.09
- pKi (Vasopressin V2 receptor [2]): 6.33
- pKi (Oxytocin receptor): < 6.00
- Kact (Vasopressin V2 receptor [10]): 80 nM
- Kinact (Vasopressin V1a receptor [6]): 81 nM
- Kinact [11]: 186 nM
- Emax [7]: < 10%
- Emax (Vasopressin V1a receptor [5]): < 10%

SMILES: Cc1ccn(-c2ccc(C(=O)N3CCCC(=O)c4ccccc43)cc2)n1
- pKi (Vasopressin V1a receptor [1]): > 8.00
- pKi (Vasopressin V2 receptor [2]): < 6.00
- pKi (Oxytocin receptor): > 8.00
- inhibition (Vasopressin V1a receptor [3]): 19%
- Emax (Vasopressin V1a receptor [5]): < 10%

Other lines, results leading:

- pKi (Vasopressin V1a receptor [1]): 6.79
- pKi (Vasopressin V2 receptor [2]): 5.94
- pKi (Oxytocin receptor): 6.16
- inhibition (Vasopressin V1a receptor [3]): 69%
- inhibition [4]: 45%
- Emax (Vasopressin V1a receptor [5]): < 10%
- Selectivity ratio (Homo sapiens [8]): 0.14
- Selectivity ratio (Homo sapiens [9]): 0.6
SMILES: Cc1ccn(-c2ccc(C(=O)N3CCCC(O)c4ccccc43)cc2)n1 (stereo not drawn)

- pKi (Vasopressin V1a receptor [1]): 7.32
- pKi (Vasopressin V2 receptor [2]): 6.80
- pKi (Oxytocin receptor): 6.40
- Kinact (Vasopressin V1a receptor [6]): 15 nM
- inhibition [4]: 36%
- Emax [7]: < 10%
- Emax (Vasopressin V1a receptor [5]): < 10%
SMILES: O=C(c1ccc(I)cc1)N1CCCCc2ccccc21

- pKi (Vasopressin V1a receptor [1]): 7.55
- pKi (Vasopressin V2 receptor [2]): 7.28
- pKi (Oxytocin receptor): 7.43
- Kact (Vasopressin V2 receptor [10]): 18 nM
- Kinact (Vasopressin V1a receptor [6]): 421 nM
- Kinact [11]: 113 nM
- Emax [7]: < 10%
- Emax (Vasopressin V1a receptor [5]): < 10%
SMILES: CCCCc1ccc(C(=O)N2CCCCc3ccccc32)cc1

- pKi (Vasopressin V1a receptor [1]): 6.13
- pKi (Vasopressin V2 receptor [2]): < 6.00
- pKi (Oxytocin receptor): > 8.00
- inhibition (Vasopressin V1a receptor [3]): 37%
- inhibition [4]: 15%
- Emax [7]: < 10%
- Emax (Vasopressin V1a receptor [5]): < 10%
SMILES: Nc1ccc(C(=O)N2CCCCc3ccccc32)cc1

- pKi (Vasopressin V1a receptor [1]): < 6.00
- pKi (Vasopressin V2 receptor [2]): < 6.00
- pKi (Oxytocin receptor): > 8.00
- inhibition (Vasopressin V1a receptor [3]): 15%
- inhibition [4]: 19%
- Emax [7]: < 10%
- Emax (Vasopressin V1a receptor [5]): < 10%
SMILES: C[N+](C)(C)c1ccc(C(=O)N2CCCCc3ccccc32)cc1

- Kact (Vasopressin V2 receptor [10]): 8.4 nM
- Emax (Vasopressin V1a receptor [5]): < 10%
- Selectivity ratio (Homo sapiens [8]): 0.93
- Selectivity ratio (Homo sapiens [9]): 0.59
SMILES: Cc1ccn(-c2ccc(C(=O)N3Cc4cnn(C)c4Nc4ccccc43)c(Cl)c2)n1

- pKi (Vasopressin V1a receptor [1]): 5.97
- pKi (Vasopressin V2 receptor [2]): < 6.00
- pKi (Oxytocin receptor): < 6.00
- Kinact (Vasopressin V1a receptor [6]): 305 nM
- inhibition [4]: 32%
- Emax [7]: < 10%
- Emax (Vasopressin V1a receptor [5]): < 10%
SMILES: CC(=O)Nc1ccc(C(=O)N2CCCCc3ccccc32)cc1

- pKi (Vasopressin V1a receptor [1]): 7.20
- pKi (Vasopressin V2 receptor [2]): 6.92
- pKi (Oxytocin receptor): 6.98
- Kact (Vasopressin V2 receptor [10]): 92 nM
- Kinact (Vasopressin V1a receptor [6]): 184 nM
- Kinact [11]: 172 nM
- Emax [7]: < 10%
- Emax (Vasopressin V1a receptor [5]): < 10%
SMILES: CCCc1ccc(C(=O)N2CCCCc3ccccc32)cc1

- pKi (Vasopressin V1a receptor [1]): > 8.00
- pKi (Vasopressin V2 receptor [2]): > 8.00
- pKi (Oxytocin receptor): > 8.00
- inhibition (Vasopressin V1a receptor [3]): < 10%
- inhibition [4]: < 10%
- Emax (Vasopressin V1a receptor [5]): < 10%
SMILES: Cc1ccn(-c2ccc(C(=O)N3CCCCCC3)c(Cl)c2)n1
